We go through 59 compounds from patent US20130131075A1, “NEW COMPOUNDS” (Boehringer Ingelheim International GmbH, priority 2009, published 2013).

In the experiment the target is T1, cynomolgus BK1-receptor (Macaca fascicularis, UniProt Q3BCU0).
T1 construct: expressed in transfected cells; host or cells: CHO cells (homogenate)
T1 sequence (Q3BCU0 1-352): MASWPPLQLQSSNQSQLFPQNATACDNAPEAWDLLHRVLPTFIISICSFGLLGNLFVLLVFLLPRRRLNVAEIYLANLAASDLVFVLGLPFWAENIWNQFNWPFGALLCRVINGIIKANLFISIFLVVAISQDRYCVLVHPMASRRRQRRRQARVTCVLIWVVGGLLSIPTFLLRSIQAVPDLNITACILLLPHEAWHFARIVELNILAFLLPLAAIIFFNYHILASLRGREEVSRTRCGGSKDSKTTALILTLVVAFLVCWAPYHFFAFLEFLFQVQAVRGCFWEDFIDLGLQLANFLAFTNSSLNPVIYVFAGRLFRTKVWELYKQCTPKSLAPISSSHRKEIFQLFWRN
In words: cynoBK1-receptor binding assay. Conditions: CHO cells expressing cynomolgus BK1-receptor, radioligand kallidine (DesArg10,Leu9); for inhibition at 10 µM: at 10 μgmol/L. The method in brief: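 Radioligand competition on homogenates of CHO cells expressing cynomolgus BK1 receptor (50 to 250 μg protein/assay), incubated 60-180 minutes at ambient temperature with 0.5 to 5.0 nM [3H]kallidine (DesArg10,Leu9) plus increasing test compound. Filtration binding; non-specific defined with 1.0 μM kallidine (DesArg10); Ki from non-linear curve fitting.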

Some results are limits rather than exact numbers.

Turning to `O=C(NC1(C(=O)NCc2ncc(Nc3ccc(Cl)cc3C(F)(F)F)cc2F)CC1)c1cncnc1` [(165)], the inhibition at 10 µM came to 101%.
As to `O=C(NC1(C(=O)NCc2ccc(Nc3ccc(Cl)cc3Cl)cn2)CC1)c1cncnc1` [(166)], the Ki was 45 nM and the inhibition at 10 µM stood at 104%.
On to `O=C(NC1(C(=O)NCc2ccc(Nc3ccc(Cl)cc3Br)cn2)CC1)c1cncnc1` [(167)], for which the Ki turned out to be 19 nM and the inhibition at 10 µM is 104%.
Consider `CNc1cncc(C(=O)NC2(C(=O)NCc3ccc(Nc4ccc(F)cc4C(F)(F)F)cn3)CC2)n1` [(168)], for which the affinity corresponds to a Ki of 235 nM and the inhibition at 10 µM was found to be 90%.
`Nc1ncc(C(=O)NC2(C(=O)NCc3ccc(Nc4ccc(F)cc4C(F)(F)F)cn3)CC2)o1` [(169)]: the affinity, expressed as Ki, was 292 nM and the inhibition at 10 µM came out at 90%.
Take `CC(C#N)C(=O)NC1(C(=O)NCc2ccc(Nc3ccc(F)cc3C(F)(F)F)cn2)CC1` (stereo not drawn) [(170)]: the inhibitory constant (Ki) was 35 nM and the inhibition at 10 µM amounted to 104%.
Regarding `O=C(NC1(C(=O)NCc2ccc(Nc3ccc(Br)cc3C(F)(F)F)cn2)CC1)c1ccnc(O)c1` [(171)], the inhibition at 10 µM is 97%.
In the case of `O=C(NC1(C(=O)NCc2ccc(Nc3ccc(Br)cc3C(F)(F)F)cn2)CC1)c1cncs1` [(172)], the Ki worked out at 9.8 nM and the inhibition at 10 µM worked out at 100%.
As to `Nc1ccc(C(=O)NC2(C(=O)NCc3ccc(Nc4ccc(Br)cc4C(F)(F)F)cn3)CC2)cn1` [(173)], the inhibition constant Ki was 2.7 nM and the inhibition at 10 µM was 105%.
For `O=C(NC1(C(=O)NCc2ccc(Nc3ccc(Br)cc3C(F)(F)F)cn2)CC1)c1ccnnc1` [(174)], the inhibition at 10 µM is 99%.
Consider `CN(C)c1ncc(C(=O)NC2(C(=O)NCc3ccc(Nc4ccc(Br)cc4C(F)(F)F)cn3)CC2)cn1` [(175)], for which affinity was put at a Ki of 63 nM and the inhibition at 10 µM worked out at 96%.
Turning to `O=C(NC1(C(=O)NCc2ccc(Nc3ccc(Br)cc3C(F)(F)F)cn2)CC1)c1cc(O)nc(O)n1` [(176)], the inhibition at 10 µM is 100%.
Consider `Cn1ccc(C(=O)NC2(C(=O)NCc3ccc(Nc4ccc(Br)cc4C(F)(F)F)cn3)CC2)cc1=O` [(177)], for which the inhibition at 10 µM came to 99%.
With `Nc1cncc(C(=O)NC2(C(=O)NCc3ccc(Nc4ccc(Br)cc4C(F)(F)F)cn3)CC2)c1` [(178)], affinity was put at a Ki of 11 nM and the inhibition at 10 µM was found to be 107%.
For the compound `O=C(NC1(C(=O)NCc2ncc(Nc3ccc(Br)cc3C(F)(F)F)cc2F)CC1)c1cncnc1` [(179)], the inhibition at 10 µM was 101%.
In the case of `CC(NC(=O)C1(NC(=O)c2cncnc2)CC1)c1ccc(Nc2ccc(Br)cc2C(F)(F)F)cn1` (stereo not drawn) [(180)], the affinity corresponds to a Ki of 1.6 nM and the inhibition at 10 µM was 106%.
For `Cc1ncc(C(=O)NC2(C(=O)NCc3ccc(Nc4ccc(F)cc4C#N)cc3)CC2)cn1` [(181)] the same measures were 19 nM and 99%.
On to `COc1ncc(C(=O)NC2(C(=O)NCc3ccc(Nc4ccc(F)cc4C#N)cc3)CC2)cn1` [(182)], for which the inhibition constant (Ki) came to 20 nM and the inhibition at 10 µM was found to be 99%.
As to `CNc1ncc(C(=O)NC2(C(=O)NCc3ccc(Nc4ccc(F)cc4C#N)cc3)CC2)cn1` [(183)], the Ki came to 21 nM and the inhibition at 10 µM turned out to be 100%.
Consider `Nc1ncc(C(=O)NC2(C(=O)NCc3ccc(Nc4ccc(F)cc4C(F)(F)F)cn3)CC2)s1` [(184)], for which the inhibition at 10 µM amounted to 99%.
With `Nc1cc(C(=O)NC2(C(=O)NCc3ccc(Nc4ccc(F)cc4C(F)(F)F)cn3)CC2)[nH]n1` [(185)], the inhibition at 10 µM worked out at 87%.
Consider `Cc1nc(N)sc1C(=O)NC1(C(=O)NCc2ccc(Nc3ccc(F)cc3C(F)(F)F)cn2)CC1` [(186)], for which the inhibition at 10 µM turned out to be 82%.
`O=C(NC1(C(=O)NCc2ncc(Nc3ccc(F)cc3C(F)(F)F)cc2Cl)CC1)c1cncnc1` [(187)]: the inhibition at 10 µM was 100%.
On to `CC(NC(=O)[C@]1(NC(=O)c2cncnc2)CCOC1)c1ccc(Nc2ccc(Br)cc2C(F)(F)F)cn1` (stereo partly drawn) [(188)], for which affinity was put at a Ki of 43 nM and the inhibition at 10 µM amounted to 92%.
On to `Cc1ccc(Nc2ccc(CNC(=O)C3(NC(=O)c4cncnc4)CC3)nc2)c(Cl)c1` [(189)], for which the Ki is > 500 nM and the inhibition at 10 µM turned out to be 96%.
On to `O=C(NC1(C(=O)NCc2ccc(Nc3ccc(F)cc3Cl)cn2)CC1)c1cncnc1` [(190)], for which the inhibition at 10 µM is 91%.
For the compound `O=C(NC1(C(=O)NCc2ccc(Nc3ccccc3C(F)(F)F)cn2)CCCCC1)c1cncnc1` [(191)], the inhibition at 10 µM amounted to 56%.
Turning to `O=C(NC1(C(=O)NCc2ccc(Nc3ccccc3C(F)(F)F)cn2)CCC(O)C1)c1cncnc1` (stereo not drawn) [(192)], the inhibition at 10 µM came to 95%.
Take `O=C1CCC(NC(=O)c2cncnc2)(C(=O)NCc2ccc(Nc3ccccc3C(F)(F)F)cn2)C1` (stereo not drawn) [(193)]: the inhibition at 10 µM was 101%.
For the compound `O=C(NC1(C(=O)NCc2ccc(Nc3ccccc3C(F)(F)F)cn2)CC[S+]([O-])C1)c1cncnc1` (stereo not drawn) [(194)], the inhibition at 10 µM came to 95%.
Turning to `O=C(O)c1ccc(Nc2ccc(CNC(=O)C3(NC(=O)c4cncnc4)CC3)nc2)c(C(F)(F)F)c1` [(195)], the inhibition constant Ki was > 500 nM and the inhibition at 10 µM was determined as 42%.
As to `COC(=O)c1ccc(Nc2ccc(CNC(=O)C3(NC(=O)c4cncnc4)CC3)nc2)c(C(F)(F)F)c1` [(196)], the inhibitory constant (Ki) was > 500 nM and the inhibition at 10 µM is 82%.
For `N#Cc1ccc(Nc2ccc(CNC(=O)C3(NC(=O)c4cncnc4)CC3)nc2)c(C(F)(F)F)c1` [(197)] the same measures were > 500 nM and 81%.
With `NC(=O)c1ccc(Nc2ccc(CNC(=O)C3(NC(=O)c4cncnc4)CC3)nc2)c(C(F)(F)F)c1` [(198)], the Ki was > 500 nM and the inhibition at 10 µM was 64%.
Take `O=C(NC1(C(=O)NCc2ccc(Nc3c(F)cccc3Cl)cn2)CC1)c1cncnc1` [(200)]: the inhibition at 10 µM was found to be 92%.
The compound `CC(NC(=O)C1(NC(=O)c2cncnc2)CC1)c1ncc(Nc2ccc(Cl)cc2C(F)(F)F)cc1F` (stereo not drawn) [(203)] returned an inhibitory constant (Ki) of 1.9 nM. This lies in the single-digit nanomolar range.
In the case of `CC(C)c1ccc(Nc2ccc(CNC(=O)C3(NC(=O)c4cncnc4)CC3)nc2)c(C(F)(F)F)c1` [(204)], the affinity, expressed as Ki, was 402 nM.
In turn, `O=C(NC1(C(=O)NCc2ccc(Nc3ccc(Cl)cc3C(F)(F)F)cn2)CC1)c1cncc(O)c1` [(205)] came in with an inhibitory constant (Ki) of 17 nM.
Still for that read-out and setting: the figure for `Nc1ccc(C(=O)NC2(C(=O)NCc3ccc(Nc4ccc(Cl)cc4C(F)(F)F)cn3)CC2)cn1` [(206)] is 5.1 nM; for `O=C(NC1(C(=O)NCc2ccc(Nc3ccc(Cl)cc3C(F)(F)F)cn2)CC1)c1ccnc(O)c1` [(207)] it is 84 nM; for `O=C(NC1(C(=O)NCc2ccc(Nc3ccc(Cl)cc3C(F)(F)F)cn2)CC1)c1cc(O)nc(O)n1` [(208)] it is 6.8 nM.
Regarding `O=C(NC1(C(=O)NCc2ccc(Nc3ccc(Cl)cc3C(F)(F)F)cn2)CC1)c1ccnnc1` [(209)], affinity was put at a Ki of 73 nM. This Ki lies about 11-fold higher than the previous one.
In turn, `CN(C)c1ncc(C(=O)NC2(C(=O)NCc3ccc(Nc4ccc(Cl)cc4C(F)(F)F)cn3)CC2)cn1` [(210)] came in with an inhibition constant (Ki) of 187 nM.
On the same count and under the same terms, the figure for `O=C(NC1(C(=O)NCc2ccc(Nc3ccc(Cl)cc3C(F)(F)F)cn2)CC1)c1cccc(O)n1` [(211)] is 25 nM.
The compound `CC(NC(=O)C1(NC(=O)c2cncnc2)CC1)c1ncc(Nc2ccc(F)cc2C#N)cc1F` (stereo not drawn) [(212)] yielded a Ki of 8 nM.
`CC(NC(=O)C1(NC(=O)c2cncnc2)CC1)c1ncc(Nc2ccc(Br)cc2C(F)(F)F)cc1F` (stereo not drawn) [(213)] had an inhibition constant (Ki) of 1.9 nM.
Take `Nc1cncc(C(=O)N[C@@]2(C(=O)NCc3ccc(Nc4ccc(F)cc4C(F)(F)F)cc3)CCOC2)c1` [(214)]: the inhibitory constant (Ki) came to 13 nM. This Ki lies about 6.8-fold higher than the previous one.
On the same count and under the same terms, the figure for `O=C(N[C@@]1(C(=O)NCc2ncc(Nc3ccc(F)cc3C(F)(F)F)cc2Cl)CCOC1)c1cncnc1` [(216)] is 7.8 nM; for `Nc1cncc(C(=O)NC2(C(=O)NCc3ccc(Nc4ccc(Cl)cc4C(F)(F)F)cn3)CC2)c1` [(217)] it is 12 nM.
On the same count and under the same terms, the figure for `Nc1cncc(C(=O)NC2(C(=O)NCc3ncc(Nc4ccc(F)cc4C(F)(F)F)cc3Cl)CC2)c1` [(218)] is 3.7 nM; for `Nc1cncc(C(=O)N[C@@]2(C(=O)NCc3ncc(Nc4ccc(F)cc4C(F)(F)F)cc3Cl)CCOC2)c1` [(219)] it is 8.9 nM; for `O=C(N[C@@]1(C(=O)NCc2ncc(Nc3ccc(F)cc3C(F)(F)F)cc2Cl)CCOC1)c1cnc2[nH]cnc2c1` [(220)] it is 15 nM.
In turn, `Cn1ncc(C(=O)NC2(C(=O)NCc3ccc(Nc4ccc(F)cc4C(F)(F)F)cn3)CC2)cc1=O` [(221)] yielded a Ki of 13 nM. This Ki and that of the compound before are within 1.5-fold of each other.
`Nc1cncc(C(=O)N[C@@]2(C(=O)NCc3ccc(Nc4ccc(Br)cc4C(F)(F)F)cn3)CCOC2)c1` [(222)] displayed an inhibition constant Ki of 68 nM.
Same read-out and setting: the figure for `O=C(N[C@@]1(C(=O)NCc2ccc(Nc3ccc(Br)cc3C(F)(F)F)cn2)CCOC1)c1cncnc1` [(223)] is 75 nM.
In turn, `CNc1ncc(C(=O)N[C@@]2(C(=O)NCc3ncc(Nc4ccc(F)cc4C(F)(F)F)cc3Cl)CCOC2)cn1` [(224)] returned a Ki of 6.3 nM.
As to `O=C(CC(F)(F)F)N[C@@]1(C(=O)NCc2ncc(Nc3ccc(F)cc3C(F)(F)F)cc2Cl)CCOC1` [(225)], affinity was put at a Ki of 68 nM.
Regarding `Nc1cncc(C(=O)N[C@@]2(C(=O)NCc3ccc(Nc4ccc(Cl)cc4C(F)(F)F)cn3)CCOC2)c1` [(226)], affinity was put at a Ki of 157 nM.
Still for that read-out and setting: the figure for `CNc1cc(C(=O)NC2(C(=O)NCc3ccc(Nc4ccc(F)cc4C(F)(F)F)cn3)CC2)cnn1` [(227)] is 97 nM.

By inhibition is commonly meant the relative decrease from the control value, in per cent. Broadly, the Ki is a measure of affinity in units of concentration, obtained from inhibition or displacement. Lower therefore signals higher affinity.
